The values below are quoted from earlier work in patent US20030108586A1, “Method of long-term reversible contraception for animals” (priority 2001, published 2003).

Read-outs that look alike come from different tables or passages of the source.

For `C[C@@H]1CC2=CC(=O)CC[C@@H]2[C@H]2CC[C@@]3(C)[C@@H](CC[C@]3(C)O)[C@@H]21` [Mibolerone™, Mibolerone], for the setting “bitches”, the adverse effects entry is “clitoral hypertrophy”.
`CC(=O)O[C@]1(C(C)=O)CC[C@H]2[C@@H]3C=C(C)C4=CC(=O)CC[C@]4(C)[C@H]3CC[C@@]21C` [Ovabant™, megestrol acetate]: the adverse effects result (synthetic progestins) is “development of mammary tumors as well as endometrial hyperplasia”.
